Among the data in US20050227980A1, “Aralkyl and aralkylidene heterocyclic lactam and imides” (Pfizer Inc., priority 2003, published 2005) are melting point values, retold here.

Structures are written as SMILES. Where a name gives a salt, the structure may show the parent alone.

Compound `CN1CCN(c2cc(Cl)ccc2C=C2OCCN(c3ccc(C(C)(C)C)cc3)C2=O)CC1` [Example 10, 4-(4-tert-Butyl-phenyl)-2-[4-chloro-2-(4-methylpiperazin-1-yl)-benzylidene]-morpholin-3-one] showed a melting point of 209 to 210.8 °C.

With `CN1CCN(c2cccc(F)c2C=C2OCCN(c3ccc(C(C)(C)C)cc3)C2=O)CC1.Cl`, the melting point lay in the range of 187.5 to 192.6 °C.

On to `CN1CCN(c2ccccc2CC2OCCN(c3ccc(C(C)(C)C)cc3)C2=O)CC1.Cl` (single isomer, unassigned) [Example 24 (+)], for which the melting point lay in the range of 165.8 to 171.2 °C.

`CN1CCN(c2ccccc2C=C2OCCN(c3ccc(C(C)(C)C)cc3)C2=O)CC1` [Example 5, 2-[2-(4-Methylpiperazin-1-yl)-benzylidene]-4-(4-tert-butylphenyl)-morpholin-3-one] registered a melting point of 169 to 171 °C.

The compound `CN1CCN(c2cc(Cl)ccc2CC2OCCN(c3ccc(C(C)(C)C)cc3)C2=O)CC1.Cl` (stereo not drawn) [Example 27 (−)] came in with a melting point of 159 to 161.8 °C.

For `CC1CN(c2ccccc2CC2OCCN(c3ccc(C(C)(C)C)cc3)C2=O)CC(C)N1C.Cl` (racemic), the melting point was 135 °C (dec.).

In turn, `CC(C)c1ccc(N2CCOC(Cc3ccccc3N3CCN(C)CC3)C2=O)cc1.Cl` (racemic) registered a melting point of 185.7 to 188.1 °C.

Compound `CN1CCN(c2ccccc2CC2OCCN(c3ccc(-c4ccccc4)cc3)C2=O)CC1.Cl` (racemic) came in with a melting point of 219.4 to 222.2 °C.

In the case of `CN1CCN(c2c(F)cccc2C=C2OCCN(c3ccc(C(C)(C)C)cc3)C2=O)CC1` [Example 12, 4-(4-tert-Butyl-phenyl)-2-[3-fluoro-2-(4-methylpiperazin-1-yl)-benzylidene]-morpholin-3-one], the melting point lay in the range of 184.3 to 187.1 °C.

For `CN1CCN(c2cc(F)ccc2CC2OCCN(c3ccc(C(C)(C)C)cc3)C2=O)CC1.Cl` (stereo not drawn) [Example 29 (+)], the melting point fell in the range of 157.4 to 159.6 °C.

Compound `CC(C)c1ccc(N2CCOC(=Cc3ccccc3N3CCN(C)CC3)C2=O)cc1` [Example 3, 2-[2-(4-Methylpiperazin-1-yl)-benzylidene]-4-(4-isopropylphenyl)-morpholin-3-one] showed a melting point of 155 to 156 °C.

`CN1CCN(c2cc(F)ccc2CC2OCCN(c3ccc(C(C)(C)C)cc3)C2=O)CC1.Cl` (racemic) [Example 29 (±)] had a melting point of 155.9 to 159.9 °C.

In turn, `CN1CCN(c2cc(C(F)(F)F)ccc2C=C2OCCN(c3ccc(C(C)(C)C)cc3)C2=O)CC1` [Example 14, 4-(4-tert-Butyl-phenyl)-2-[2-(4-methylpiperazin-1-yl)-4-trifluoromethyl-benzylidene]-morpholin-3-one] gave a melting point of 186.3 to 191.9 °C.

The compound `CN1CCN(c2cccc(F)c2CC2OCCN(c3ccc(C(C)(C)C)cc3)C2=O)CC1.Cl` (stereo not drawn) [Example 28 (+)] yielded a melting point of 176.9 to 179.3 °C.

As to `CN1CCN(c2ccccc2CC2OCCN(Cc3ccc(C(C)(C)C)cc3)C2=O)CC1.Cl` (racemic), the melting point was 215 to 216 °C.

In the case of `CN1CCN(c2cccc(C(F)(F)F)c2C=C2OCCN(c3ccc(C(C)(C)C)cc3)C2=O)CC1.Cl`, the melting point was 205 °C (dec.).

Consider `Cc1ccc(N2CCN(C)CC2)c(CC2OCCN(c3ccc(C(C)(C)C)cc3)C2=O)c1` (single isomer, unassigned; (+)) [Example 31 (+), (+)-4-(4-tert-Butyl-phenyl)-2-[5-methyl-2-(4-methylpiperazin-1-yl)-benzyl]-morpholin-3-one], for which the melting point was 92 to 93 °C.

`CN1CCN(c2ccccc2C=C2OCCN(Cc3ccc(C(C)(C)C)cc3)C2=O)CC1` [Example 20, 4-(4-tert-Butyl-benzyl)-2-[2-(4-methylpiperazin-1-yl)-benzylidene]-morpholin-3-one] returned a melting point of 68 to 70 °C.

As to `CN1CCN(c2c(F)cccc2CC2OCCN(c3ccc(C(C)(C)C)cc3)C2=O)CC1.Cl` (stereo not drawn) [Example 30 (+)], the melting point was 104.7 °C (dec.).

`CN1CCN(c2ccc(C(F)(F)F)cc2CC2OCCN(c3ccc(C(C)(C)C)cc3)C2=O)CC1.Cl` (stereo not drawn) [Example 32 (−)] returned a melting point of 128 to 130 °C.

For `CN1CCN(c2cccc(F)c2CC2OCCN(c3ccc(C(C)(C)C)cc3)C2=O)CC1.Cl` (stereo not drawn) [Example 28 (−)], the melting point fell in the range of 178 to 181.4 °C.

As for `CN1CCN(c2cccc(Cl)c2CC2OCCN(c3ccc(C(C)(C)C)cc3)C2=O)CC1.Cl` (racemic), the melting point was 215 °C (dec.).

As for `CN1CCN(c2c(F)cccc2CC2OCCN(c3ccc(C(C)(C)C)cc3)C2=O)CC1.Cl` (racemic) [Example 30 (±)], the melting point fell in the range of 107 to 108.7 °C.

On to `CN1CCN(c2c(F)cccc2CC2OCCN(c3ccc(C(C)(C)C)cc3)C2=O)CC1.Cl` (stereo not drawn) [Example 30 (−)], for which the melting point was in the range of 128.5 to 129.9 °C.

The compound `CN1CCN(c2cc(F)ccc2CC2OCCN(c3ccc(C(C)(C)C)cc3)C2=O)CC1.Cl` (stereo not drawn) [Example 29 (−)] yielded a melting point of 156.2 to 158.1 °C.

`CC1CN(c2ccccc2C=C2OCCN(c3ccc(C(C)(C)C)cc3)C2=O)CC(C)N1C` (stereo not drawn) [Example 6, 2-[2-(3,4,5-Trimethylpiperazin-1-yl)-benzylidene]-4-(4-tert-butylphenyl)-morpholin-3-one] returned a melting point of 167 to 168 °C.

Take `CN1CCN(c2cccc(F)c2CC2OCCN(c3ccc(C(C)(C)C)cc3)C2=O)CC1.Cl` (racemic) [Example 28 (±)]: the melting point was in the range of 190.5 to 192.1 °C.

`CN1CCN(c2ccc(C(F)(F)F)cc2CC2OCCN(c3ccc(C(C)(C)C)cc3)C2=O)CC1` (racemic) [Example 32 (±), (±)-4-(4-tert-Butyl-phenyl)-2-[2-(4-methylpiperazin-1-yl)-5-trifluoromethyl-benzyl]-morpholin-3-one] showed a melting point of 145.1 to 146.2 °C.

Regarding `Cc1ccc(N2CCN(C)CC2)c(CC2OCCN(c3ccc(C(C)(C)C)cc3)C2=O)c1` (single isomer, unassigned; (-)) [Example 31 (−), (−)-4-(4-tert-Butyl-phenyl)-2-[5-methyl-2-(4-methylpiperazin-1-yl)-benzyl]-morpholin-3-one], the melting point lay within 86 to 88 °C.

The compound `CN1CCN(c2ccccc2CC2OCCN(c3ccc(C(C)(C)C)cc3)C2=O)CC1.Cl` (single isomer, unassigned) [Example 24 (−)] returned a melting point of 187.1 to 191.2 °C.

`CN1CCN(c2ccc(C(F)(F)F)cc2CC2OCCN(c3ccc(C(C)(C)C)cc3)C2=O)CC1.Cl` (stereo not drawn) [Example 32 (+)]: the melting point fell in the range of 136 to 138 °C.

In turn, `Cc1ccc(N2CCN(C)CC2)c(C=C2OCCN(c3ccc(C(C)(C)C)cc3)C2=O)c1` [Example 15, 4-(4-tert-Butyl-phenyl)-2-[5-methyl-2-(4-methylpiperazin-1-yl)-benzylidene]-morpholin-3-one] came in with a melting point of 209.2 to 211 °C.

`CN1CCN(c2ccccc2CC2OCCN(c3ccc(C(C)(C)C)cc3)C2=O)CC1` (racemic) (as salt: tartrate) [Example 23, (±)-4-(4-tert-Butyl-phenyl)-2-[2-(4-methylpiperazin-1-yl)-benzyl]-morpholin-3-one]: the melting point is 179 to 180 °C (dec.).

`CN1CCN(c2cc(Cl)ccc2CC2OCCN(c3ccc(C(C)(C)C)cc3)C2=O)CC1.Cl` (stereo not drawn) [Example 27 (+)] came in with a melting point of 159.5 to 161.7 °C.

As to `CN1CCN(c2cccc(Cl)c2C=C2OCCN(c3ccc(C(C)(C)C)cc3)C2=O)CC1.Cl`, the melting point lay in the range of 139 to 142 °C.

On to `CN1CCN(c2cc(Cl)ccc2CC2OCCN(c3ccc(C(C)(C)C)cc3)C2=O)CC1` (racemic) [Example 27 (±), (±)-4-(4-tert-Butyl-phenyl)-2-[4-chloro-2-(4-methylpiperazin-1-yl)-benzyl]-morpholin-3-one], for which the melting point was 161.9 to 163.5 °C.

As usually defined, the melting point is the temperature, or range, at which the solid turns liquid.
